Our source for the IC50 values is patent publication US12522607B2, “Substituted pyrazolo[3,4-d]pyrimidines as wee-1 inhibitors” (WIGEN BIOMEDICINE TECHNOLOGY (SHANGHAI) CO., LTD., priority 2020, dated 2026).

For orientation: IC50 means the concentration at which inhibition is half-maximal.

One assay has as its system HT29 cells. The assay can be described thus: Antiproliferative activity against HT29 cells (Cell Titer-Lumi, ATP content). Particulars: Homo sapiens, HT-29, 72 after compound addition, read-out: HT-29 cells Anti-proliferative activity (IC50 for the inhibition against HT-29 cell growth). In kind it is cell-based. Put shortly: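 Growth inhibition IC50 derived from luminescent ATP content after 72 (units as printed) of compound exposure over a dilution gradient. Seeding density 3000 cells per well; compound added once cells had adhered overnight.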

For another assay, the target named is T1, Wee-1 kinase (Homo sapiens, UniProt P30291).
T1 construct: purchased Invitrogen
The assay can be described thus: Inhibitory activity against Wee-1 kinase (Lanthra Screen Wee-1 kinase kit, Tracer 178). Particulars: Wee-1 kinase 5 nM, Tracer 178 50 nM, 1 h room temperature. In kind it is binding. The procedure, abridged:
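Compound gradient in DMSO mixed with 5 nM Wee-1, 2 nM Eu-anti-GST antibody and 50 nM Tracer 178 (all final). Read after one hour at room temperature; IC50 calculated against the DMSO solvent control.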

T1 sequence (P30291 whole entry): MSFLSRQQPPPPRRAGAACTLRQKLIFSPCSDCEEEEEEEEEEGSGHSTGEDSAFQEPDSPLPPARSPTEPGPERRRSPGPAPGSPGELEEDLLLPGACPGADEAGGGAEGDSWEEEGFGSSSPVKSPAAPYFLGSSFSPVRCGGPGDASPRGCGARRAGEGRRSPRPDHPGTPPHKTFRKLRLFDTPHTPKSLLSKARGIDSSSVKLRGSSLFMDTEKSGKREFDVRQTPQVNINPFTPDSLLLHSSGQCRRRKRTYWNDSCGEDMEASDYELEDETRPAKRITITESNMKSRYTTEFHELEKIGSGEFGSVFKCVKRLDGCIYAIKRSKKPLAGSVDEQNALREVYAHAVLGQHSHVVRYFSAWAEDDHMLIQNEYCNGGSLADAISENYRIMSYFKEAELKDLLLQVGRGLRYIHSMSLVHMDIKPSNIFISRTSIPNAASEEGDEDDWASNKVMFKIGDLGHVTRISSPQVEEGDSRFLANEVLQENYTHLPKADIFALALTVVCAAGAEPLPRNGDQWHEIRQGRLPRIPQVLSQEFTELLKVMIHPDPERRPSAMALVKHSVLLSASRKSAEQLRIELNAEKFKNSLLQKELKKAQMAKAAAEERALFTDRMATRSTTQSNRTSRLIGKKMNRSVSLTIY

Take `C=CCn1c(=O)c2cnc(Nc3ccc(N4CCC5(CNC5)C4)cc3)nc2n1-c1ccc(=O)n(C(C)C)n1` [Compound 169]: the IC50 in the assay with HT29 cells was 1 to 3 µM; on Wee-1 kinase, at most 0.03 µM.

As to `C=CCn1c(=O)c2cnc(Nc3ccc(N4CCN(C)[C@H](C)C4)cc3)nc2n1-c1ccc(=O)n(C(C)C)n1` [Compound 132], the results for the IC50 in the assay with HT29 cells and at Wee-1 kinase were at most 1 µM and at most 0.03 µM, respectively.

For the compound `C=CCn1c(=O)c2cnc(Nc3ccc(N4CCC5(CN(C)C5)C4)c(OC)c3)nc2n1-c1ccc(=O)n(C(C)C)n1` [Compound 174], the values for the IC50 in the assay on HT29 cells and on Wee-1 kinase were at most 1 µM and at most 0.03 µM, respectively.

With `C=CCn1c(=O)c2cnc(Nc3ccc(CCN(C)C)cc3)nc2n1-c1ccc(=O)n(C(C)C)n1` [Compound 214], the IC50 in the assay on HT29 cells was at most 1 µM; at Wee-1 kinase, at most 0.03 µM.

As to `C=CCn1c(=O)c2cnc(Nc3ccc(C4CCN(C)CC4)c(C)c3)nc2n1-c1ccc(=O)n(C(C)(C)C)c1` [Compound 328], the IC50 in the assay with HT29 cells was at most 1 µM; against Wee-1 kinase it was at most 0.03 µM.

As for `C=CCn1c(=O)c2cnc(Nc3ccc(N4CCC(NC)CC4)c(OC)c3)nc2n1-c1ccc(=O)n(C(C)C)n1` [Compound 106], the half-maximal inhibitory concentration (IC50) is at most 1 µM with HT29 cells and at most 0.03 µM against Wee-1 kinase.

`C=CCn1c(=O)c2cnc(Nc3cc(OC)cc(N4CCNCC4)c3)nc2n1-c1ccc(=O)n(C(C)C)n1` [Compound 76]: the IC50 in the assay with HT29 cells was at most 1 µM; against Wee-1 kinase, at most 0.03 µM.

`C=CCn1c(=O)c2cnc(Nc3cccc(C4CCNCC4)c3)nc2n1-c1ccc(=O)n(C(C)C)n1` [Compound 204]: the IC50 in the assay on HT29 cells is at most 1 µM; against Wee-1 kinase, at most 0.03 µM.

Consider `C=CCn1c(=O)c2cnc(Nc3ccc4c(c3)CCNC4)nc2n1-c1ccc(=O)n(C(C)C)n1` [Compound 228], for which the IC50 in the assay with HT29 cells was at most 1 µM; on Wee-1 kinase, at most 0.03 µM.

For the compound `Cc1cc(Nc2ncc3c(=O)n(C(C)C)n(-c4ccc(=O)n(C(C)C)c4)c3n2)ccc1N1CCN(C)CC1` [Compound 304], the results for the IC50 in the assay on HT29 cells and against Wee-1 kinase were at most 1 µM and at most 0.03 µM, respectively.

In the case of `CCn1c(=O)c2cnc(Nc3ccc4c(c3)CN(C)CC43CC3)nc2n1-c1ccc(=O)n(C(C)(C)C)n1` [Compound 287], the IC50 in the assay with HT29 cells is at most 1 µM; against Wee-1 kinase, at most 0.03 µM.

With `C=CCn1c(=O)c2cnc(Nc3ccc(N4CC5(CCN(C)C5)C4)c(C)c3)nc2n1-c1ccc(=O)n(C(C)C)n1` [Compound 164], the IC50 with HT29 cells was at most 1 µM; against Wee-1 kinase, at most 0.03 µM.

With `C=CCn1c(=O)c2cnc(Nc3ccc(N4CCC(C)(N)CC4)c(OC)c3)nc2n1-c1ccc(=O)n(C(C)C)n1` [Compound 109], the figures for the IC50 with HT29 cells and on Wee-1 kinase were at most 1 µM and at most 0.03 µM, respectively.

For the compound `C=CCn1c(=O)c2cnc(Nc3ccc(N4CCN(C)CC4)cc3)nc2n1-c1ccc(=O)n(C2CC2)n1` [Compound 11], the IC50 with HT29 cells was at most 1 µM; against Wee-1 kinase, at most 0.03 µM.

For `C=CCn1c(=O)c2cnc(Nc3ccc4c(C5CCN(C(C)C)CC5)cn(C)c4c3)nc2n1-c1ccc(=O)n(C(C)C)n1` [Compound 268], the values for the IC50 in the assay on HT29 cells and against Wee-1 kinase were at most 1 µM and at most 0.03 µM, respectively.

Regarding `C=CCn1c(=O)c2cnc(Nc3ccc(N4CCC(N)CC4)c(C)c3)nc2n1-c1ccc(=O)n(C(C)C)n1` [Compound 102], the IC50 was at most 1 µM with HT29 cells and at most 0.03 µM at Wee-1 kinase.

As to `C=CCn1c(=O)c2cnc(Nc3ccc(N4CCN(C)CC4)c(C)c3)nc2n1-c1ccc(=O)n(C(C)C)c1` [Compound 296], the concentration for half-maximal inhibition (IC50) with HT29 cells is at most 1 µM; at Wee-1 kinase, at most 0.03 µM.

Take `C=CCn1c(=O)c2cnc(Nc3ccc(OCCN(C)C)c(C)c3)nc2n1-c1ccc(=O)n(C(C)C)n1` [Compound 217]: the IC50 in the assay with HT29 cells was at most 1 µM; on Wee-1 kinase it was at most 0.03 µM.

On to `C=CCn1c(=O)c2cnc(Nc3ccc(N4CC[C@@H](N(C)C)C4)c(OC)c3)nc2n1-c1ccc(=O)n(C(C)C)n1` [Compound 97], for which the IC50 in the assay with HT29 cells was at most 1 µM; against Wee-1 kinase, at most 0.03 µM.

With `CN1Cc2cc(Nc3ncc4c(=O)n(C5CC5)n(-c5ccc(=O)n(C(C)(C)C)c5)c4n3)ccc2C2(CC2)C1` [Compound 341], the IC50 in the assay on HT29 cells was at most 1 µM; against Wee-1 kinase, at most 0.03 µM.

For the compound `C=CCn1c(=O)c2cnc(Nc3ccc(CCN(C)C)c(C)c3)nc2n1-c1ccc(=O)n(C(C)C)n1` [Compound 215], the 50% inhibitory concentration (IC50) was at most 1 µM in the assay on HT29 cells and at most 0.03 µM on Wee-1 kinase.

`C=CCn1c(=O)c2cnc(Nc3ccc(OCCN(C)C)cc3)nc2n1-c1ccc(=O)n(C(C)C)n1` [Compound 216]: the results for the 50% inhibitory concentration (IC50) in the assay with HT29 cells and against Wee-1 kinase were at most 1 µM and at most 0.03 µM, respectively.

Take `C=CCn1c(=O)c2cnc(Nc3ccc(N4CCN(C)CC4)cc3)nc2n1-c1ccc(=O)n(C(C)CC)n1` (stereo not drawn) [Compound 5]: the values for the IC50 with HT29 cells and at Wee-1 kinase were at most 1 µM and at most 0.03 µM, respectively.

For the compound `C=CCn1c(=O)c2cnc(Nc3ccc(C4CCN(C)CC4)c(C)c3)nc2n1-c1ccc(=O)n(C(C)C)c1` [Compound 297], the IC50 in the assay on HT29 cells was at most 1 µM; on Wee-1 kinase it was at most 0.03 µM.

With `C=CCn1c(=O)c2cnc(Nc3ccc(N4CCC(N5CCC(F)(F)CC5)CC4)cc3)nc2n1-c1ccc(=O)n(C(C)C)n1` [Compound 151], the IC50 in the assay on HT29 cells is at most 1 µM; against Wee-1 kinase, at most 0.03 µM.

As for `C=CCn1c(=O)c2cnc(Nc3ccc(N4CCC(NC)CC4)c(C)c3)nc2n1-c1ccc(=O)n(C(C)C)n1` [Compound 105], the figures for the IC50 in the assay with HT29 cells and at Wee-1 kinase were at most 1 µM and at most 0.03 µM, respectively.

Regarding `C=CCn1c(=O)c2cnc(Nc3ccc4c(c3)C(C)(C)CN(C(C)C)C4)nc2n1-c1ccc(=O)n(C(C)C)n1` [Compound 245], the IC50 is at most 1 µM with HT29 cells and at most 0.03 µM against Wee-1 kinase.

For the compound `C=CCn1c(=O)c2cnc(Nc3ccc(N4CCNCC4)c(C)c3)nc2n1-c1ccc(=O)n(C(C)C)n1` [Compound 41], the IC50 in the assay with HT29 cells is at most 1 µM; on Wee-1 kinase, at most 0.03 µM.

Turning to `C=CCn1c(=O)c2cnc(Nc3ccc(N4CCC(C)(N(C)C)CC4)c(C)c3)nc2n1-c1ccc(=O)n(C(C)C)n1` [Compound 114], the IC50 with HT29 cells was at most 1 µM; against Wee-1 kinase, at most 0.03 µM.

As to `C=CCn1c(=O)c2cnc(Nc3ccc(N4CC5(CCNCC5)C4)cc3)nc2n1-c1ccc(=O)n(C(C)C)n1` [Compound 166], the IC50 in the assay with HT29 cells lay in the range of 1 to 3 µM; at Wee-1 kinase, 0.03 to 0.1 µM.

As for `C=CCn1c(=O)c2cnc(Nc3cc(OC)cc(C4CCN(C)CC4)c3)nc2n1-c1ccc(=O)n(C(C)C)n1` [Compound 213], the results for the IC50 in the assay with HT29 cells and at Wee-1 kinase were at most 1 µM and at most 0.03 µM, respectively.

As to `CC(C)n1cc(-n2c3nc(Nc4ccc(N5CCN(C)CC5)cc4)ncc3c(=O)n2C(C)C)ccc1=O` [Compound 303], the IC50 with HT29 cells was at most 1 µM; against Wee-1 kinase, at most 0.03 µM.

On to `C=CCn1c(=O)c2cnc(Nc3ccc(N4C[C@H](C)NC[C@H]4C)cc3)nc2n1-c1ccc(=O)n(C(C)C)n1` [Compound 124], for which the values for the IC50 in the assay on HT29 cells and at Wee-1 kinase were at most 1 µM and at most 0.03 µM, respectively.

For the compound `C=CCn1c(=O)c2cnc(Nc3ccc4c(c3)CN(C)CC43CC3)nc2n1-c1ccc(=O)n(C(C)C)c1` [Compound 298], the IC50 with HT29 cells is at most 1 µM; on Wee-1 kinase, at most 0.03 µM.

`C=CCn1c(=O)c2cnc(Nc3ccc4c(c3)CC(N(C)C)C4)nc2n1-c1ccc(=O)n(C(C)C)n1` (stereo not drawn) [Compound 220]: the values for the IC50 in the assay with HT29 cells and at Wee-1 kinase were at most 1 µM and at most 0.03 µM, respectively.

For the compound `C=CCn1c(=O)c2cnc(Nc3ccc(N4CC5(CCN5C)C4)c(C)c3)nc2n1-c1ccc(=O)n(C(C)C)n1` [Compound 187], the figures for the IC50 with HT29 cells and against Wee-1 kinase were at most 1 µM and at most 0.03 µM, respectively.

Turning to `C=CCn1c(=O)c2cnc(Nc3ccc4c(c3)CN(C(C)C)CC4(C)C)nc2n1-c1ccc(=O)n(C(C)C)n1` [Compound 239], the 50% inhibitory concentration (IC50) in the assay with HT29 cells is at most 1 µM; at Wee-1 kinase it was at most 0.03 µM.

`C=CCn1c(=O)c2cnc(Nc3ccc4c(c3)CN(C(C)C)CC43CC3)nc2n1-c1ccc(=O)n(C(C)C)n1` [Compound 233]: the IC50 is at most 1 µM in the assay on HT29 cells and at most 0.03 µM on Wee-1 kinase.

Turning to `C=CCn1c(=O)c2cnc(Nc3cnn(C4CCN(C(C)C)CC4)c3)nc2n1-c1ccc(=O)n(C(C)C)n1` [Compound 251], the IC50 in the assay with HT29 cells was 1 to 3 µM; against Wee-1 kinase it was 0.03 to 0.1 µM.

On to `CCn1c(=O)c2cnc(Nc3ccc4c(c3)CN(C)CC43CC3)nc2n1-c1ccc(=O)n(C(C)(C)C)c1` [Compound 333], for which the IC50 with HT29 cells is at most 1 µM; against Wee-1 kinase it was at most 0.03 µM.

In the case of `C=CCn1c(=O)c2cnc(Nc3ccc(N4CCC5(CCN(C)CC5)CC4)c(OC)c3)nc2n1-c1ccc(=O)n(C(C)C)n1` [Compound 186], the IC50 in the assay on HT29 cells was at most 1 µM; against Wee-1 kinase, at most 0.03 µM.

On to `C=CCn1c(=O)c2cnc(Nc3ccc(N4CC5(CN(C)C5)C4)cc3)nc2n1-c1ccc(=O)n(C(C)C)n1` [Compound 157], for which the figures for the IC50 in the assay on HT29 cells and on Wee-1 kinase were at most 1 µM and at most 0.03 µM, respectively.

`C=CCn1c(=O)c2cnc(Nc3ccc4c(c3)CNCC4(F)F)nc2n1-c1ccc(=O)n(C(C)C)n1` [Compound 240]: the IC50 in the assay with HT29 cells is at most 1 µM; at Wee-1 kinase it was at most 0.03 µM.

With `C=CCn1c(=O)c2cnc(Nc3ccc4c(c3)CN(C(C)C)CC4(F)F)nc2n1-c1ccc(=O)n(C(C)C)n1` [Compound 242], the IC50 in the assay with HT29 cells is at most 1 µM; against Wee-1 kinase, at most 0.03 µM.

On to `C=CCn1c(=O)c2cnc(Nc3cc(N4CCC(N(C)C)CC4)c4cc[nH]c4c3)nc2n1-c1ccc(=O)n(C(C)C)n1` [Compound 254], for which the IC50 in the assay on HT29 cells was at most 1 µM; against Wee-1 kinase, at most 0.03 µM.

For `C=CCn1c(=O)c2cnc(Nc3cc(C)c(N4CCNCC4)c(Cl)c3)nc2n1-c1ccc(=O)n(C(C)C)n1` [Compound 57], the IC50 in the assay with HT29 cells is at most 1 µM; against Wee-1 kinase, at most 0.03 µM.

Take `C=CCn1c(=O)c2cnc(Nc3cc(Cl)cc(N4CCN(C)CC4)c3)nc2n1-c1ccc(=O)n(C(C)C)n1` [Compound 74]: the results for the IC50 in the assay on HT29 cells and against Wee-1 kinase were at most 1 µM and at most 0.03 µM, respectively.

For `C=CCn1c(=O)c2cnc(Nc3cc(F)c(N4CCNCC4)c(Cl)c3)nc2n1-c1ccc(=O)n(C(C)C)n1` [Compound 59], the values for the IC50 with HT29 cells and at Wee-1 kinase were at most 1 µM and at most 0.03 µM, respectively.
